≈ marks a conversion by molar mass, not a printed value.
Details: buffer; pH 7.4; 200.0 µM

| SMILES | solubility kinetic |
| --- | --- |
| CC(Nc1ccc2c(c1)OCCO2)C(=O)N1c2ccccc2CC1C (stereo unspecified) | > 50.8 µg/mL |
| O=[N+]([O-])c1ccc2nc(-c3ccncc3)[nH]c2c1 | 8 µg/mL (≈ 33.3 µM) |
| Cc1cc(C)cc(NC(=O)CCN2CCOCC2)c1 | > 39.4 µg/mL |
| O=C(c1ccccn1)N1CCN(c2cccc(C(F)(F)F)c2)CC1 | > 50.3 µg/mL |
| Cc1noc(C(=O)Nc2cc(Cl)ccc2O)c1Cl | 1.7 µg/mL (≈ 5.92 µM) |
| CC1CCC(NS(=O)(=O)c2ccc3c(c2)CC(=O)N3)CC1 (stereo unspecified) | 27.3 µg/mL (≈ 88.5 µM) |
| COCC(=O)N1CCCC(N(C)CCc2ccc(OC)c(OC)c2)C1 (stereo unspecified) | > 52.6 µg/mL |
| O=C(Nc1cc(Cl)ccn1)C1(c2ccccc2)CC1(Cl)Cl (stereo unspecified) | < 0.4 µg/mL |
| Cc1ccc(C)c(NC(=O)CN(C)C(C)C(=O)N2CCCC2)c1 (stereo unspecified) | 42.1 µg/mL (≈ 133 µM) |
| CCOC(=O)c1nsnc1NCCCl | 22.7 µg/mL (≈ 96.3 µM) |
| CN(C)C(=S)c1ccc(N(C)C)cc1 | 28.2 µg/mL (≈ 135 µM) |
| Cc1cc(/C=C2/NC(=O)NC2=O)c(C)n1-c1ccncc1 | > 42.3 µg/mL |
| Cc1cc(C)n2nc(SC(C)C(=O)N3CC(C)OC(C)C3)nc2n1 (stereo unspecified) | > 52.4 µg/mL |
| COc1ccc2c([N+](=O)[O-])c(Cl)[nH]c2c1 | 32.3 µg/mL (≈ 143 µM) |
| Cc1ccc(C)c(NC(=S)N(C)C)c1 | > 31.2 µg/mL |
| CN(C)C(CNC(=O)c1ccc(Br)cc1)c1ccco1 (stereo unspecified) | 30.4 µg/mL (≈ 90.1 µM) |
| O=C(Nc1ccc(N2CCCC2)cc1)c1cccc(Cl)c1Cl | < 0.4 µg/mL |
| CN1C2CCC1CC(NC(=O)c1ccc(Cl)cc1)C2 (stereo unspecified) | > 41.8 µg/mL |

| SMILES | solubility kinetic |
| --- | --- |
| N/C(=N/OC(=O)c1ccccc1Cl)c1ncc([N+](=O)[O-])s1 | 1.3 µg/mL (≈ 3.98 µM) |
| COc1ccc(NC(=O)COC(=O)c2cccn2C)cc1S(=O)(=O)N1CCCCC1 | 32.6 µg/mL (≈ 74.9 µM) |
| O=C(Nc1ccccc1N1CCOCC1)c1ccncc1 | > 42.5 µg/mL |
| C=CCn1c(SCC(=O)Nc2cccc(S(N)(=O)=O)c2)nc2sc(C)c(C)c2c1=O | 3 µg/mL (≈ 6.46 µM) |
| CC(NC(=O)c1ccc(Cl)cc1)C1CC2CCC1C2 (stereo unspecified) | 1.1 µg/mL (≈ 3.96 µM) |
| Cc1ccc(S(=O)(=O)N2CCOCC2)cc1C(=O)OCC(=O)c1c(N)n(C)c(=O)n(C)c1=O | 38.9 µg/mL (≈ 81 µM) |
| O=C(O)CNC(=S)NCc1ccccc1 | > 33.6 µg/mL |
| O=C(OCC(=O)N1CCCCCC1)c1ccc(F)cc1F | 44.4 µg/mL (≈ 149 µM) |
| Cc1ccc(S(=O)(=O)NCC2CCCO2)cc1 (stereo unspecified) | > 38.3 µg/mL |
| C/C(=C\c1cccs1)C(=O)c1c(C)cc(C)[nH]c1=O | > 41 µg/mL |
| C=CCc1c(N(CC)CC)nc(C)[nH]c1=O | > 33.2 µg/mL |
| COc1cc(C(=O)OCC(=O)NC2CCCCC2)cc(OC)c1OC | > 52.7 µg/mL |
| CCOP(=O)(OCC)C(O)c1cccnc1 (stereo unspecified) | > 36.8 µg/mL |
| COc1ccc(OC)c(/C=C2\NC(=O)NC2=O)c1 | 9.5 µg/mL (≈ 38.3 µM) |
| COc1cc(S(=O)(=O)N(C)C2CCCCC2)c(C)cc1C | 1.5 µg/mL (≈ 4.82 µM) |
| COc1ccc(S(=O)(=O)N2CCOCC2)cc1NC(=O)COC(=O)c1ccc([N+](=O)[O-])s1 | 14 µg/mL (≈ 28.8 µM) |
| N#Cc1ccccc1OCC(=O)C1CC1 | 28.4 µg/mL (≈ 141 µM) |

Second part, the molecule after the results:

| solubility kinetic | SMILES |
| --- | --- |
| 9.6 µg/mL (≈ 20.4 µM) | COc1ccc(NC(=O)CCc2nc3ccccc3c(=O)[nH]2)cc1S(=O)(=O)N1CCCCC1 |
| 3.6 µg/mL (≈ 11.1 µM) | COc1ccccc1CNCc1cc(=O)oc2c(C)c(C)ccc12 |
| < 0.6 µg/mL | COc1ccc(C(=O)Nc2cccc3c2CCCC3)cc1 |
| 9.6 µg/mL (≈ 36 µM) | Cc1ccc(OCCn2c(C)nc3ccccc32)cc1 |
| > 38.4 µg/mL | Cc1ccc2c(c1)CCCN2C(=O)c1cc(C)on1 |
| 6.6 µg/mL (≈ 20.4 µM) | NC(=NC(=O)c1ccc(OCC(F)(F)F)nc1)c1ccccc1 |
| > 56.9 µg/mL | C=CCn1c(SCC(=O)NC2(C)CCS(=O)(=O)C2)nc2ccccc21 (stereo unspecified) |
| 18.7 µg/mL (≈ 61.2 µM) | COc1ccccc1C(=O)NC(C)c1cccc2ccccc12 (stereo unspecified) |
| > 41.8 µg/mL | Cc1ccc(S(=O)(=O)Nc2ccsc2C#N)cc1 |
| > 42.5 µg/mL | COc1ccccc1CNS(=O)(=O)c1cccs1 |
| 0.4 µg/mL (≈ 1.27 µM) | CC(C)(C)Nc1c(-c2ccc(O)cc2)nc2ccc(Cl)cn12 |
| 20.8 µg/mL (≈ 60.1 µM) | O=C(COc1ccc(Br)cc1)N1CCc2ccccc2C1 |
| 2 µg/mL (≈ 6.86 µM) | O=C(CSc1nc2ccccc2o1)Nc1nccs1 |
| 7.4 µg/mL (≈ 24 µM) | O=C(Nc1ccccc1)c1ccc(-c2ccc([N+](=O)[O-])cc2)o1 |
| 4.2 µg/mL (≈ 13 µM) | Cc1ccc(NC(=O)CCc2ccc(C)o2)c(Br)c1 |
| > 48.2 µg/mL | O=C(Cc1cccc2ccccc12)Nc1ccc(O)cc1C(=O)O |
| > 33.2 µg/mL | OC(COc1ccccc1)CN1CCCC1 (stereo unspecified) |
| 37.1 µg/mL (≈ 130 µM) | Cc1ccc(C(=O)Nc2nc(-c3ccccn3)cs2)o1 |
| 42.7 µg/mL (≈ 136 µM) | COc1ccc(-c2noc(CN(C)C(=O)c3ccco3)n2)cc1 |
| > 52.7 µg/mL | Cc1ccc(-c2csc(NC(=O)c3cccc(C)c3)c2C(=O)O)cc1 |
| > 26.1 µg/mL | COc1ccc(-n2ccnc2)cc1 |
| 8.4 µg/mL (≈ 25.2 µM) | CCCCOc1ccc(C(=O)OCC(=O)N2CCCCCC2)cc1 |
| 33.4 µg/mL (≈ 139 µM) | ClC1(Cl)CC1Cn1cnc2ccccc21 (stereo unspecified) |
| 2.2 µg/mL (≈ 6.78 µM) | CCCc1nc2ccccc2c(=O)n1CC(=O)c1ccc(F)cc1 |
| 2.6 µg/mL (≈ 8.12 µM) | COc1ccc2[nH]c(C(=O)N3CCc4ccccc4C3)c(C)c2c1 |
| 22.2 µg/mL (≈ 59.5 µM) | COc1ccccc1NC(=O)/C(=C/c1ccncc1)NC(=O)c1ccccc1 |

Reference: PubChem BioAssay AID1996
